Source: US5437864A, “Method of inhibiting blood coagulation in extracorporeal circulation by inhibiting human tissue factor” (The Scripps Research Institute, priority 1992, dated 1995)
Like-named read-outs stand apart in the source and are kept apart here. No end group written: not given here.

Legend:
[1] = target: T1, factor VII/VIIa (Homo sapiens, UniProt P08709); test: Inhibition of huTF-initiated coagulation by polypeptide analogs of huTFh; format: biochemical; conditions: for inhibition of huTF-initiated coagulation, dose-response (FIG. 12): non-lipidated polypeptides, various concentrations
T1 construct: from tissue
T1 sequence (P08709 61-466): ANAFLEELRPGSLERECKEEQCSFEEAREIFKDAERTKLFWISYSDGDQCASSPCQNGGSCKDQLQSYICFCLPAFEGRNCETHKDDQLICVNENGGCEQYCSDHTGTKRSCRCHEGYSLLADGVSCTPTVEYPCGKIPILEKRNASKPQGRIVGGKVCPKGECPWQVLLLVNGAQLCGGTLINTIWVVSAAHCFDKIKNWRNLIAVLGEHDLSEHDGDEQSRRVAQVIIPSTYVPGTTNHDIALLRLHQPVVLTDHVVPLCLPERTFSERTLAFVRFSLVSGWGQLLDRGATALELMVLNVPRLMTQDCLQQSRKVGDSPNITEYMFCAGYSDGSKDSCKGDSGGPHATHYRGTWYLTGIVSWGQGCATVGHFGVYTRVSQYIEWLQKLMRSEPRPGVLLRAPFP
Method: The ability of the polypeptides of the present invention to inhibit huTF-initiated coagulation were assayed by first incubating the polypeptides in the presence of factor VII/VIIa and calcium ions, and then adding this mixture to factor VII/VIIa-deficient plasma and evaluating clotting times.
Human factor VII/VIIa was isolated as described in Example 3. Ten microliters of a solution of 200 ng of this isolated factor VII/VIIa per ml of HBS/BSA was added to a solution comprising 100 ul of HBS, 20 ul of 25 mM CaCl2, and with 100 ul of TBS/Triton containing synthetic polypeptide. Numerous admixtures were so prepared which contained varying concentrations of the polypeptide and were then maintained at 37 degrees C. for 15 minutes. Relipidated tissue factor prepared as described in Example 4 was diluted in HBS/BSA such that 10 ul would yield a coagulation time of approximately 45 seconds when tested in the coagulation assay described in Example 2. The above maintained admixture was further admixed with this 10 ul dilution of relipidated huTF, with 100 ul of 25 mM CaCl2, and with 100 ul of factor VII/VIIa-deficient plasma (George King Bio-Medical, Inc., Overland Park, Kans.) diluted 1 part plasma to 1.5 parts HBS. The clotting time was then determined and plotted as described in Example 2. A prolongation of clotting time was taken to indicate inhibition of coagulation by the synthetic polypeptide. Percent inhibition was calculated as described in Example 10. Polypeptides producing at least a 30% inhibition of coagulation were considered huTFh binding site polypeptide analogs, i.e., polypeptides p26-49, p146-167 and p161-189 as shown in section I of Table 4.
Lipidated synthetic peptides were prepared in the manner described in Example 4 for relipidation of isolated huTF except that synthetic polypeptide was substituted for isolated huTF. The ratio 52 to 1 of lipid to polypeptide (w/w) was routinely utilized. Lipidated polypeptides producing at least 30% inhibition of coagulation were considered huTFh binding site polypeptide analogs, when present in lipidated form, i.e., those polypeptides shown in section II of Table 4.
The results of this study are shown in FIG. 12 and indicate that p24-35 and p152-169 are capable of inhibiting 45% and 25% respectively, of the huTF-initiated coagulation when utilized at 10 uM concentrations. It should be noted that in this study background inhibitions such as for those peptides indicated by a closed circle in FIG. 12 were lower than the study shown in Table 4. As a result, polypeptides producing at least a 20% inhibition of coagulation at a concentration of 10 uM in this study were considered huTF binding site polypeptide analogs.

[2] = target: T1, factor VII/VIIa; test: Inhibition of factor X activation on J82 cells by huTFh polypeptides; format: cell-based; conditions: for Optical Density: O.D. at 405 nm of factor Xa chromogenic product, 50 ul polypeptide solution at 100 uM, PBS control 0.960, no factor VII 0.005, significant if about 0.500 or less
Method: Fifty microliters (ul) of a solution containing a huTF polypeptide analog at 100 uM […] in TBS was added to each well of a 96-well of a 96-well flat bottom polystyrene assay plate. Then to each well was admixed 25 ul of a solution containing factor VII/VIIa isolated as described in Example 3 at a concentration of 1 nm in TBS, further admixed with 25 ul of 20 mM calcium chloride in TBS and the resulting admixture is maintained at room temperature for 30 minutes.
Human bladder cell carcinoma J82 cells were obtained from the American Type Culture Collection (ATCC HTB 1; Rockville, Md.) and cultured as described by Fair et al., J. Biol. Chem., 262:11692-11698 (1987) which methods are incorporated herein by reference.
5×10^4 J82 cells are suspended into 50 ul of TBS and admixed to each well of the polystyrene assay plate after the above maintenance period. Immediately thereafter 25 ul of factor X, isolated as described by Fair et al., J. Biol. Chem., 262:11692-11698 (1987), at a concentration of 100 nM in TBS and 50 ul of Xa chromogenic substrate S-2222 (1 mg/ml in TBS) were admixed, and the resulting admixture was maintained for two minutes at room temperature to form a chromogenic reaction product containing solution.
The amount of chromogenic product formed was quantitated by measuring the amount of optical density (O.D.) at 405 nanometers (nm) using a V-max 96 well spectrophotometer (Molecular Devices, Mountain View, Calif.). Controls with PBS in place of polypeptide or with no factor VII added were also run to establish the maximum and minimum possible O.D. values.

[3] = non-phospholipidated peptides, 10 μM
[4] = phospholipidated peptides, 10 μM, read-out: Inhibition (Percent Inhibition of huTF-initiated coagulation)
[5] = phospholipidated peptides, 10 μM
[6] = non-phospholipidated peptides, 10 μM, read-out: Inhibition (Percent Inhibition of huTF-initiated coagulation)
[7] = Example 17 study (FIG. 12), non-lipidated, 10 uM, read-out: inhibition of huTF-initiated coagulation

Substance	Optical Density [2]	inhibition at 10 µM [1, 6] [%]	other results
p40-49: huTFh polypeptide analog of Table 4; sequence not printed; probably p41-49 (TKSGDWKSKC; UniProt P13726 72-81, looked up, fragment)	–	–	Inhibition (Percent Inhibition of huTF-initiated coagulation) [1, 3]: 25.0%
p41-71: huTFh polypeptide analog of Table 4; sequence not printed; probably p40-71 (KSGDWKSKCFYTTDTECDLTDEIVKDVKQTY; UniProt P13726 73-103, looked up, fragment)	–	–	Inhibition (Percent Inhibition of huTF-initiated coagulation) [1, 3]: 25.0%
H-VFGKDLIYTLYYWKSSSSGKKT-OH [p146-167]	0.004 ± 0.001	–	binding to factor VII/VIIa and inhibition of factor X activation [2]: bind to factor VII/VIIa and inhibit its ability to form a TF:VII/VIIa complex that can activate factor X; inhibition at 10 µM [1, 4]: 80%
p11-28: huTFh polypeptide; designation represents included residues of FIG. 1; sequence not printed (NLTWKSTNFKTILEWEPK; UniProt P13726 43-60, looked up, fragment)	0.687 ± 0.071	–	–
H--TKSGDWKSKCFYTTDTECDLTDEIVKDVKQTY--OH (H-TKSGDWKSKCFYTTDTECDLTDEIVKDVKQTY-OH; cysteine pairing not given here) [p40-71]	0.814 ± 0.053	–	inhibition of huTF-initiated coagulation, dose-response (FIG. 12) [1]: no substantial inhibition; Inhibition (Percent Inhibition of huTF-initiated coagulation) [1, 5]: 65.0%
p161-190: huTFh polypeptide of Table 10; sequence not printed; probably p161-189 (SSSGKKTAKTNTNEFLIDVDKGENYCFSVQ; UniProt P13726 193-222, looked up, fragment)	0.600 ± 0.023	–	–
H-RDVFGKDLIYTLYYWK-OH [p144-159, H--RDVFGKDLIYTLYYWK--OH]	0.507 ± 0.053	–	binding to factor VII/VIIa and inhibition of factor X activation [2]: bind to factor VII/VIIa and inhibit its ability to form a TF:VII/VIIa complex that can activate factor X
p50-71: phospholipidated huTFh polypeptide analog of Table 4; sequence not printed; probably p56-71 (FYTTDTECDLTDEIVKDVKQTY; also: phospholipidated (position not given here); UniProt P13726 82-103, looked up, fragment)	–	–	Inhibition (Percent Inhibition of huTF-initiated coagulation) ([1]; phospholipidated peptides, 30 μM): 73.3%
H-YWKSSSSGKKTAK-OH [p157-169, H--YWKSSSSGKKTAK--OH]	0.389 ± 0.035	–	binding to factor VII/VIIa and inhibition of factor X activation [2]: bind to factor VII/VIIa and inhibit its ability to form a TF:VII/VIIa complex that can activate factor X
p1-18: huTFh polypeptide; designation represents included residues of FIG. 1; sequence not printed (SGTTNTVAAYNLTWKSTN; UniProt P13726 33-50, looked up, fragment)	1.007 ± 0.087	–	–
p244-263: huTFh polypeptide of Table 10; sequence not printed; probably p245-263 (KCRKAGVGQSWKENSPLNVS; UniProt P13726 276-295, looked up, fragment)	0.619 ± 0.047	–	–
H-QAVIPSRTVNRKSTDSPVEC-OH [p190-209]	0.625 ± 0.031	20	–
H-EPKPVNQVYTVQISTKSGDWKSKC-OH [p26-49]	0.437 ± 0.020	–	binding to factor VII/VIIa and inhibition of factor X activation [2]: bind to factor VII/VIIa and inhibit its ability to form a TF:VII/VIIa complex that can activate factor X
H-IYTLYYWKSSSSGKKTAK-OH [p152-169, H--IYTLYYWKSSSSGKKTAK--OH]	–	–	inhibition at 10 µM [1, 7]: 25%
H-SSSGKKTAKTNTNEFLIDVDKGENYCFSV-OH [p161-189]	–	≥ 30	inhibition of huTF-initiated coagulation, dose-response (FIG. 12) [1]: no substantial inhibition; inhibition at 10 µM [1, 4]: 94%
H-DSPVECMGQEKGEFREIFYIIGA-OH [p204-226]	0.715 ± 0.042	20	–
H-YENSPEFTPYLETNLGQPTIQSFEQVGTKV-OH [p94-123]	0.818 ± 0.055	20	inhibition of huTF-initiated coagulation, dose-response (FIG. 12) [1]: no substantial inhibition; inhibition at 10 µM [1, 4]: 93.7%
H-SGTTNTVAAYNLTWKSTNFKTILEWEPKPV-OH [p1-30]	1.098 ± 0.028	25	inhibition at 10 µM [1, 4]: 81%
H-LARVFSYPAGNVESTGSAGEPLYENSPEFTPYLC-OH [p72-104]	0.781 ± 0.047	25	inhibition of huTF-initiated coagulation, dose-response (FIG. 12) [1]: no substantial inhibition
H-TKVNVTVEDERTLVRRNNTFLSLRDVFGKDLIYTL-OH [p121-155]	0.889 ± 0.067	10	inhibition at 10 µM [1, 4]: 55%
H-EWEPKPVNQVYT-OH [p24-35, H--EWEPKPVNQVYT--OH]	0.477 ± 0.017	–	binding to factor VII/VIIa and inhibition of factor X activation [2]: bind to factor VII/VIIa and inhibit its ability to form a TF:VII/VIIa complex that can activate factor X; inhibition at 10 µM [1, 7]: 45%
H-ECDLTDEIVKDVKQTY-OH [p56-71, H--ECDLTDEIVKDVKQTY--OH]	–	25	–
p26-40: phospholipidated huTFh polypeptide analog of Table 4; sequence not printed; probably p26-49 (EPKPVNQVYTVQIST; also: phospholipidated (position not given here); UniProt P13726 58-72, looked up, fragment)	–	–	Inhibition (Percent Inhibition of huTF-initiated coagulation) [1, 5]: 83.0%
